According to ChEMBL document CHEMBL1155108, “SAR, pharmacokinetics, safety, and efficacy of glucokinase activating 2-(4-sulfonylphenyl)-N-thiazol-2-ylacetamides: discovery of PSN-GK1” (J Med Chem, 2008):
Values after ≈ are worked out from the molar mass of the structure shown. Active and inactive are the calls of the source. The rule behind the calls is not given here.

Experiments:
Hexokinase-4 = target: T1, Hexokinase-4 (Homo sapiens, UniProt P35557); test: Activation of GST fused human liver glucokinase assessed as generation of NADPH by G6PDH coupled assay
T1 sequence (P35557 whole entry): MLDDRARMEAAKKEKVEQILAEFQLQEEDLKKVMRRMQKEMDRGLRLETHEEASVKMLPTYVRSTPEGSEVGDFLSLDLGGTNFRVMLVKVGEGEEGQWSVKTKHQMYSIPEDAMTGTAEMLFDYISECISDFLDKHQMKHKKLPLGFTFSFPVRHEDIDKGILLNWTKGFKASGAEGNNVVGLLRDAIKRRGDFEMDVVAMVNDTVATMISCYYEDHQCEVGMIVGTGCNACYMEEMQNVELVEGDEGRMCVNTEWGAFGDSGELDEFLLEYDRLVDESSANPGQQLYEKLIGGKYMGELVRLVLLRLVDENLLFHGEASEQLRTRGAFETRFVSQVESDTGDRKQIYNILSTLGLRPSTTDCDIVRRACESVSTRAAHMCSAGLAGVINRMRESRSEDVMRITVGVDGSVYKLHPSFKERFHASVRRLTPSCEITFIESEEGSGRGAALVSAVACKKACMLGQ

[1] = Plasma concentration in C57B1/6 mouse at 10 mg/kg, po after 0.5 hrs; format: ADME, organism-based; parameters: dose 10 mg/kg, route oral
[2] = Metabolic stability in mouse liver microsomes; format: ADME, Microsome
[3] = Aqueous solubility at pH 6.5 buffer; format: physicochemical
Rattus norvegicus [4] = test: Acute toxicity in rat at >=100 mg/kg, po; format: organism-based; conditions: in vivo
[5] = Plasma concentration in C57B1/6 mouse at 5 mg/kg, po after 0.5 hrs; format: ADME, organism-based; parameters: dose 5 mg/kg, route oral
[6] = Oral bioavailability in Sprague-Dawley rat at 5 mg/10 mL/kg in 10% aqueous gelucire 44/14; format: ADME, organism-based; conditions: in vivo, 5 mg/kg
Rattus norvegicus [7] = test: Reduction in blood glucose level in fasted Sprague-Dawley rat at 10 mg/kg, po for 360 mins; format: functional, organism-based; parameters: dose 10 mg/kg
[8] = AUC (0 to infinity) in Sprague-Dawley rat at 1 mg/5 mL/kg, iv in 40% DMSO; format: ADME, organism-based; parameters: dose 5 mL/kg, time infinity, route intravenous; conditions: plasma, 1 mg/kg
[9] = Cmax in Sprague-Dawley rat at 5 mg/10 mL/kg, po in 10% aqueous gelucire 44/14; format: ADME, organism-based; conditions: in vivo, 5 mg/kg
[10] = Volume of distribution at steady state in Sprague-Dawley rat at 1 mg/5 mL/kg, iv in 40% DMSO; format: ADME, organism-based; conditions: in vivo, 1 mg/kg, read-out: Vdss
[11] = Half life in Sprague-Dawley rat at 5 mg/10 mL/kg, po in 10% aqueous gelucire 44/14; format: ADME, organism-based; conditions: in vivo, 5 mg/kg
[12] = Cmax in Sprague-Dawley rat at 250 mg/kg, po; format: ADME, organism-based; parameters: dose 250 mg/kg, route oral; conditions: in vivo
Rattus norvegicus [13] = test: Toxicity in Sprague-Dawley rat at 250 mg/kg, po; format: organism-based; parameters: dose 250 mg/kg, route oral; conditions: in vivo
[14] = Tmax in Sprague-Dawley rat at 5 mg/10 mL/kg, po in 10% aqueous gelucire 44/14; format: ADME, organism-based; conditions: in vivo, 5 mg/kg
[15] = Clearance in Sprague-Dawley rat at 1 mg/5 mL/kg, iv in 40% DMSO; format: ADME, organism-based; conditions: in vivo, 1 mg/kg
[16] = Half life in Sprague-Dawley rat at 1 mg/5 mL/kg, iv in 40% DMSO; format: ADME, organism-based; conditions: in vivo, 1 mg/kg
[17] = AUC (0 to 24 hrs) in Sprague-Dawley rat at 250 mg/kg, po; format: ADME, organism-based; parameters: time < 24 hr, dose 250 mg/kg, route oral; conditions: plasma
[18] = AUC (0 to infinity) in Sprague-Dawley rat at 5 mg/10 mL/kg, po in 10% aqueous gelucire 44/14; format: ADME, organism-based; parameters: dose 10 mL/kg, time infinity, route oral; conditions: plasma, 5 mg/kg

In the case of CS(=O)(=O)c1ccc([C@H](CC2CCOCC2)C(=O)Nc2nccs2)cc1, the EC50 (Hexokinase-4) is reported as > 10000 nM.

In the case of CS(=O)(=O)c1ccc([C@@H](CC2CCOCC2)C(=O)Nc2ncc(F)s2)cc1, the EC50 (Hexokinase-4) is reported as 1430 nM, the concentration at 0.5 h [1] is reported as 8280 ng/mL and the half-life [2] is reported as 2.08 h. For the same molecule, the solubility [3] was 298 µg/mL (≈ 722 µM).

In the case of O=C(Nc1nccs1)[C@H](CC1CCOCC1)c1ccc(S(=O)(=O)C2CC2)cc1, the EC50 (Hexokinase-4) is reported as 570 nM, the concentration at 0.5 h [1] is reported as 1860 ng/mL and the half-life [2] is reported as 2.4 h. The Activity (Rattus norvegicus [4]) was “Toxic” and the solubility [3] was 147 µg/mL (≈ 350 µM).

Molecule Cc1cnc(NC(=O)[C@H](CC2CCOCC2)c2ccc(S(=O)(=O)C3CC3)cc2)s1 has an EC50 (Hexokinase-4) of 580 nM, a concentration at 0.5 h [1] of 1640 ng/mL and a half-life [2] of 0.883 h. The solubility [3] was 40 µg/mL (≈ 92 µM).

With CS(=O)(=O)c1ccc(C(CC2CCOCC2)C(=O)Nc2nccs2)cc1 (stereo not drawn) the EC50 (Hexokinase-4) was 8930 nM, the half-life [2] was > 3.33 h and the solubility [3] was 97 µg/mL (≈ 246 µM).

With CS(=O)(=O)c1ccc([C@@H](CC2CCOCC2)C(=O)Nc2nccs2)cc1 the EC50 (Hexokinase-4) was 3470 nM, the concentration at 0.5 h [1] was 5150 ng/mL and the half-life [2] was > 3.33 h. For the same molecule, the Activity (Rattus norvegicus [4]) was “Toxic” and the solubility [3] was 410 µg/mL (≈ 1040 µM).

With O=C(Nc1nccs1)/C(=C/c1cccs1)c1ccccc1 the EC50 (Hexokinase-4) was 10800 nM.

In the case of CS(=O)(=O)c1ccc(C(=Cc2cccs2)C(=O)Nc2nccs2)cc1, the EC50 (Hexokinase-4) is reported as 560 nM.

Work on O=C(Nc1ncc(F)s1)[C@H](CC1CCOCC1)c1ccc(S(=O)(=O)C2CCCC2)cc1 yielded an EC50 (Hexokinase-4) of 70 nM, a concentration at 0.5 h [1] of 168 ng/mL and a half-life [2] of 0.267 h. The solubility [3] was 24 µg/mL (≈ 51.4 µM).

O=C(Nc1ncc(F)s1)[C@H](CC1CCOCC1)c1ccc(S(=O)(=O)C2CCC2)cc1 gave an EC50 (Hexokinase-4) of 140 nM, a half-life [2] of 0.45 h and a concentration at 0.5 h [5] of 1180 ng/mL. For the same molecule, the solubility [3] was 60 µg/mL (≈ 133 µM).

In the case of O=C(Nc1ncc(F)s1)[C@H](CC1CCOCC1)c1ccc(S(=O)(=O)C2CC2)cc1, the concentration at 0.5 h [1] is reported as 5010 ng/mL, the bioavailability [6] is reported as 129% and the Activity (Rattus norvegicus [7]) is reported as “Active”. For the same molecule, the half-life [2] was 1.5 h, the AUC(0-inf) [8] was 1660 ng·h/mL and the Cmax [9] was 1130 ng/mL. It also gave a Vd [10] of 2.1 L/kg, a half-life [11] of 3.4 h and a Cmax [12] of 49200 ng/mL. For the same molecule, the Activity (Rattus norvegicus [13]) was “Non-toxic”, the Tmax [14] was 1 h and the clearance [15] was 10 mL/min/kg. The solubility [3] was 58 µg/mL (≈ 132 µM), the half-life [16] was 3.2 h and the AUC(0-t) at 24 h [17] was 898000 ng·h/mL. It also gave an AUC(0-inf) [18] of 10700 ng·h/mL.

For O=C(Nc1cnccn1)/C(=C/c1cccs1)c1ccccc1, the EC50 (Hexokinase-4) was 26000 nM.

In the case of CS(=O)(=O)c1ccc(/C(=C\C2CCOCC2)C(=O)Nc2nccs2)cc1, the EC50 (Hexokinase-4) is reported as 2300 nM, the concentration at 0.5 h [1] is reported as 3680 ng/mL and the half-life [2] is reported as > 3.33 h. For the same molecule, the solubility [3] was 13 µg/mL (≈ 33.1 µM).
